Data taken from publication PMC5840262, “Design, Synthesis and Evaluation of Branched RRWQWR-Based Peptides as Antibacterial Agents Against Clinically Relevant Gram-Positive and Gram-Negative Pathogens” (Frontiers in Microbiology, 2018).
In brackets after ≈: the same amount, converted by molar mass. Bridge positions count the residues as written; N and C are the ends. Square brackets hold non-standard residues; d marks the D form. Peptide text beside a SMILES is read from it. I, II: the chains in the order shown. Ahx = NCCCCCC(=O)O

Key:
human erythrocytes = assay: Hemolytic activity; format: cell-based; settings: red cells of human, 2 h
Procedure: Human erythrocytes collected from the blood samples of healthy humans were harvested by centrifugation for 7 min at 162 × g and washed three times in phosphate-buffered saline (PBS). The erythrocytes (2% hematocrit in PBS) were incubated with peptide molecules at several concentrations (6.25, 12.5, 25, 50, and 100 μM) for 2 h at 37°C. PBS was used as negative control for hemolysis, and sterile distilled water was used as positive control (100% hemolysis). The plate was subsequently centrifuged at 1,459 × g for 10 min at 4°C. Aliquots of the supernatant from each well (75 μL) were carefully transferred to a new sterile 96-well plate, and hemolytic activity was evaluated by measuring the OD492 using an Asys Expert Plus Microplate reader. The experiments were performed in duplicate, and hemolytic activity was calculated for each peptide.

[1] = test system: Enterococcus faecalis ATCC 51575 (resistant); format: cell-based
Procedure: (§1) We screened all five peptides against the ATCC reference strains and the clinical isolates according to Method M7-A7 of the National Committee for Clinical Laboratory Standards (CLSI, [2007]). The MIC50 and MBC values were determined using a broth microdilution and growth inhibition method previously reported by Leon-Calvijo et al. ([2015]), with some modifications (Wiegand et al., [2008]). Briefly, the MIC50 experiments comprised a liquid-inhibition growth assay in a sterile, untreated, 96-well flat-bottom tissue culture plate. The bacteria were cultured overnight n Mueller Hinton agar; three colonies were transferred to 8 mL of Mueller Hilton broth and incubated at 37°C until the mid-exponential phase of growth. The turbidity of the cultures was measured and adjusted spectrophotometrically to a McFarland standard of 0.5, and then diluted to a final concentration of 5 × 10^7 colony forming units (CFU) per well. Stock solutions (2,000 μM) of each test peptide were serially diluted to final concentrations (per well) of 200, 100, 50, 25, 12.5, and 6.25 μM. Each concentration was evaluated in duplicate and each assay was performed in triplicate.
(§2) Wells containing Mueller Hilton broth with bacterial inoculum only served as bacterial-growth controls. Additional controls included Mueller Hilton broth alone (as blank) and Mueller Hilton broth with ciprofloxacin (2 μg/mL; as positive control). The microplate was incubated for 24 h at 37°C, and growth inhibition was measured by monitoring the optical density at 620 nm (OD620). The MIC50 was defined as the peptide concentration at which bacterial growth was inhibited by 50%.
(§3) To determine the MBC, an aliquot from each well of the MIC50 assay was spread onto Mueller Hilton agar. After 18 h at 37°C, the concentration that inhibited bacterial growth was determined. Each of these tests was performed four times. MBC was defined as the lowest concentration of peptide at which the number of bacteria was reduced by 99.9% in vitro (European Committee for Antimicrobial Susceptibility Testing, [2000]).

[2] = test system: Pseudomonas aeruginosa ATCC 10145 (sensitive); format: cell-based
Procedure: as §1, §2, §3

[3] = test system: Pseudomonas aeruginosa ATCC 27853 (resistant); format: cell-based
Procedure: as §1, §2, §3

[4] = test system: Enterococcus faecalis ATCC 29212 (sensitive); format: cell-based
Procedure: as §1, §2, §3

[5] = test system: clinical isolates of Gram-positive bacteria (Enteroccocus faecium, Staphylococcus aureus); assay: Therapeutic index, Gram-positive clinical isolates
Text: (§4) We determined the therapeutic index of each peptide, which we defined as the ratio of Maximum Hemolytic Activity (Hmax) to MIC50 (Hmax/MIC50).
(§5) The results are shown in Table 7 (Gram-positive) and Table 8 (Gram-negative). Regarding the Gram-positive bacteria, the palindromic, dimeric and tetrameric peptides were active chiefly against S. aureus. This trend was consistent with results of the experiments on the ATCC strains, in which these peptides were only active against the sensitive strain of the […] bacteria.

[6] = test system: clinical isolates of Gram-negative bacteria (Klebsiella pneumoniae, Pseudomonas aeruginosa); assay: Therapeutic index, Gram-negative clinical isolates
Text: as §4, §5

[7] = test system: Gram-negative ATCC strains (K. pneumoniae 13883 and 700603, P. aeruginosa 10145 and 27853)
Text: as §4
The therapeutic index (TI) is a ratio of the toxic dose of a substance to its therapeutically-active dose and can be calculated different ways (e.g., LD50/ED50). Here, we calculated a TI value for each peptide against all the Gram-positive or the Gram-negative ATCC strains, by dividing its Hmax by its MIC50 for the given group of strains. […] Additionally, to make our quantitative analysis more robust [geometric mean (Khachatryan et al., [2017]) and fold values], we have included MIC50 values for these peptides against S. aureus and K. pneumoniae that we previously obtained using the same assay, the M7-A7 method of the National Committee for Clinical Laboratory Standards (Leon-Calvijo et al., [2015]).

[8] = test system: Klebsiella pneumoniae clinical isolate 49,644; format: cell-based
How it was run: (§6)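 Mid-exp. bacteria → McF 0.5 → […], MH broth; peptide final 6.25–200 μM (2-fold); 24 h, 37°C; OD620; MIC50 = 50% inhibition. MBC: well aliquots plated on MH agar, 18 h 37°C, ≥99.9% reduction.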

[9] = test system: Enterococcus faecium clinical isolate 1,040; format: cell-based
How it was run: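 OD620 after 24 h at 37°C defined MIC50 as the peptide level inhibiting growth by 50%. Isolates grown to mid-exponential phase, set to McFarland 0.5, […] in Mueller Hinton broth; final peptide 200 down to 6.25 μM, duplicate wells, triplicate runs.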

[10] = test system: Enterococcus faecium clinical isolate 1,225; format: cell-based
How it was run: as §6

## N=C(N)NCCC[C@H](NC(=O)[C@H](Cc1c[nH]c2ccccc12)NC(=O)[C@H](CCC(N)=O)NC(=O)[C@H](Cc1c[nH]c2ccccc12)NC(=O)[C@H](CCCNC(=N)N)NC(=O)[C@@H](N)CCCNC(=N)N)C(=O)NCCCC[C@H](NC(=O)[C@H](CCCNC(=N)N)NC(=O)[C@H](Cc1c[nH]c2ccccc12)NC(=O)[C@H](CCC(N)=O)NC(=O)[C@H](Cc1c[nH]c2ccccc12)NC(=O)[C@H](CCCNC(=N)N)NC(=O)[C@@H](N)CCCNC(=N)N)C(=O)NCCCCCC(N)=O [LfcinB (20–25)2] (I: H-RRWQWRK[Ahx]-NH2 / II: H-RRWQWR; amide I:7-II:C; N-terminus assumed)
Human erythrocytes
  H50, concentration of peptide leading to 50% hemolysis: >100 µM
[1]; 25.0 μM, untreated control = 100%, Figure 2B
  Bacterial viability (lowest value observed): 65.3%
[1]; ATCC 51575, 18 h
  MBC: >200.0 µM
[1]; ATCC 51575, 24 h
  MIC50: >200.0 µM
[2]; ATCC 10145, 18 h
  MBC: 100.0 µM (≈ 220 µg/mL)
[2]; ATCC 10145, 24 h
  MIC50: 29.1 µM (≈ 63.9 µg/mL)
[2]; sensitive P. aeruginosa strain
  MBC relative to MBC of the tetrameric peptide (× MBCtet): 4 × MBCtet
[3]; ATCC 27853, 18 h
  MBC: 200.0 µM (≈ 439 µg/mL)
[3]; ATCC 27853, 24 h
  MIC50: 34.8 µM (≈ 76.4 µg/mL)
[3]; resistant P. aeruginosa strain
  MBC relative to MBC of the tetrameric peptide (× MBCtet): 4 × MBCtet
[4]; 25 μM, untreated control = 100%, Figure 2A
  Bacterial viability (lowest value observed): 40.9%
[4]; ATCC 29212, 18 h
  MBC: 100.0 µM (≈ 220 µg/mL)
[4]; ATCC 29212, 24 h
  MIC50: 13.1 µM (≈ 28.8 µg/mL)
[4]; sensitive E. faecalis strain
  MBC relative to MBC of the tetrameric peptide (× MBCtet): 4 × MBCtet
[5]
  Gm, geometric mean of MIC50 values: 16.4
[5]; Gram-positive clinical isolates
  Fold (GM peptide / GM tetrameric peptide): 2.4
[6]
  Gm, geometric mean of MIC50 values: 16.8 µM
[6]; Gram-negative clinical isolates
  Fold (GM peptide / GM tetrameric peptide): 1.7
[7]
  Gm, geometric mean of MIC50 values: 16.1
[7]; Gram-negative ATCC strains
  Fold (GM peptide / GM tetrameric peptide): 1.2
[8]; clinical isolate 49,644, 18 h
  MBC: 50.0 µM (≈ 110 µg/mL)
[8]; clinical isolate 49,644, 24 h
  MIC50: 12.3 µM (≈ 27 µg/mL)
[9]; clinical isolate 1,040, 18 h
  MBC: >100 µM
[9]; clinical isolate 1,040, 24 h
  MIC50: >100 µM
[10]; clinical isolate 1,225, 18 h
  MBC: >100 µM
[10]; clinical isolate 1,225, 24 h
  MIC50: >100 µM
